Here are results for seven compounds from PubChem BioAssay (NCI).

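Where inhibition never reached the appropriate level, the endpoint shown equals the highest concentration tested. Otherwise, values were interpolated linearly from a five-concentration, 48-hour dose response in 96-well plates. At the GI50, growth is halved. TGI denotes the concentration required for complete inhibition of growth.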

Some test systems named below: HCT-116 colon; OVCAR-4 ovarian; HCT-15 colon; LOX IMVI melanoma; KM12 colon; MCF7 breast; RXF 393 renal; IGROV1 ovarian; HCC-2998 colon; K-562 leukemia.
Holding throughout (experiment): NCI tumour cell line growth inhibition, 48 h

As for `CC1(N)CCN(c2cccnc2NC(=O)c2nc(-c3ncccc3C(F)(F)F)cnc2N)CC1`, the GI50 was 13.5 µM with HCT-116 colon; 21.5 µM in the assay on OVCAR-4 ovarian; 25.1 µM in the assay with HCT-15 colon; 21.5 µM in the assay on LOX IMVI melanoma; 0.413 µM in the assay with KM12 colon; 26.2 µM in the assay on MCF7 breast. In addition, the GI50 in the assay with RXF 393 renal is 10.1 µM; in the assay with IGROV1 ovarian, 3.67 µM; with HCC-2998 colon it was above 100 µM; in the assay on K-562 leukemia, 22.3 µM. Moreover, the TGI in the assay on HCT-116 colon is above 100 µM; in the assay with OVCAR-4 ovarian, above 100 µM; in the assay on HCT-15 colon, above 100 µM; in the assay with LOX IMVI melanoma, 53.4 µM; with KM12 colon, above 100 µM; in the assay on MCF7 breast, above 100 µM. For the same compound, the TGI in the assay with RXF 393 renal was 32.4 µM; in the assay with IGROV1 ovarian it was above 100 µM; in the assay with HCC-2998 colon, above 100 µM; in the assay on K-562 leukemia it was above 100 µM.

Regarding `COc1cc2c3c(n(CCCCN)c(=O)c2cc1OC)-c1cc2c(cc1C3=O)OCO2`, the GI50 in the assay on HCT-116 colon is 0.234 µM; in the assay with OVCAR-4 ovarian, 0.719 µM; with HCT-15 colon it was 0.805 µM; with LOX IMVI melanoma, 0.107 µM; in the assay on KM12 colon it was 1.72 µM; in the assay with MCF7 breast it was 0.0191 µM. The GI50 was 1.47 µM in the assay with RXF 393 renal, 1.14 µM with IGROV1 ovarian, 0.659 µM with HCC-2998 colon and 0.431 µM with K-562 leukemia. For the same compound, the TGI came out at 0.797 µM in the assay with HCT-116 colon; 4.66 µM with OVCAR-4 ovarian; 9.81 µM in the assay on HCT-15 colon; 0.529 µM in the assay on LOX IMVI melanoma; 6.32 µM in the assay with KM12 colon; 1.13 µM in the assay on MCF7 breast. The TGI in the assay on RXF 393 renal is 5.72 µM; in the assay on IGROV1 ovarian it was 5.08 µM; in the assay on HCC-2998 colon, 2.26 µM; in the assay on K-562 leukemia it was 2.17 µM.

Take `O=C(Cn1c(=O)c(-c2ccccc2)nc2ccccc21)Nc1ccc(F)cc1`: the GI50 in the assay with HCT-116 colon is 24 µM; in the assay with OVCAR-4 ovarian it was 47.3 µM; in the assay with HCT-15 colon, above 100 µM; with LOX IMVI melanoma it was above 100 µM; with KM12 colon, above 100 µM; in the assay on MCF7 breast, 98.7 µM. The GI50 in the assay with RXF 393 renal is 35.5 µM; in the assay with IGROV1 ovarian it was 89.6 µM; in the assay with HCC-2998 colon it was above 100 µM; in the assay with K-562 leukemia, 35.8 µM. The TGI in the assay on HCT-116 colon, with OVCAR-4 ovarian, with HCT-15 colon, in the assay with LOX IMVI melanoma, in the assay on KM12 colon and in the assay on MCF7 breast was above 100 µM throughout. Also, the TGI with RXF 393 renal, in the assay on IGROV1 ovarian, with HCC-2998 colon and in the assay with K-562 leukemia was above 100 µM each time.

In the case of `Cc1ccc(-c2nc(C#N)c(S(=O)(=O)n3nc(C)cc3N)o2)cc1`, the GI50 is 3.16 µM in the assay with HCT-116 colon; 4.26 µM in the assay with OVCAR-4 ovarian; 1.9 µM in the assay on HCT-15 colon; 1.86 µM with LOX IMVI melanoma; 16.5 µM with KM12 colon; 3.07 µM with MCF7 breast. Moreover, the GI50 is 1.87 µM in the assay with RXF 393 renal, 2.99 µM in the assay with IGROV1 ovarian, 19.5 µM in the assay with HCC-2998 colon and 1.25 µM in the assay on K-562 leukemia. For the same compound, the TGI in the assay with HCT-116 colon came out at 13.2 µM; with OVCAR-4 ovarian it was 20.7 µM; in the assay on HCT-15 colon, 3.72 µM; in the assay on LOX IMVI melanoma it was 3.59 µM; in the assay with KM12 colon it was 33.8 µM; with MCF7 breast, 15.5 µM. Also, the TGI in the assay on RXF 393 renal stood at 3.56 µM; in the assay on IGROV1 ovarian, 8.28 µM; in the assay with HCC-2998 colon, 38 µM; with K-562 leukemia, 4.3 µM.

For the compound `CCOC(=O)c1cc2c(n1Cc1cccc(OC)c1)-c1oncc1CCC2`, the GI50 was 0.534 µM in the assay with HCT-116 colon; 8.38 µM with OVCAR-4 ovarian; 0.473 µM with HCT-15 colon; 2.93 µM in the assay on LOX IMVI melanoma; 0.58 µM in the assay with KM12 colon; 0.385 µM with MCF7 breast. Besides, the GI50 with RXF 393 renal is 1.07 µM; in the assay with IGROV1 ovarian it was 0.968 µM; in the assay with HCC-2998 colon, 5.58 µM; in the assay with K-562 leukemia it was 0.456 µM. In addition, the TGI with HCT-116 colon, in the assay on OVCAR-4 ovarian, in the assay with HCT-15 colon, in the assay with LOX IMVI melanoma, with KM12 colon and with MCF7 breast was above 100 µM each time. In addition, the TGI in the assay on RXF 393 renal is 6.89 µM; in the assay with IGROV1 ovarian it was above 100 µM; in the assay with HCC-2998 colon, above 96.4 µM; in the assay with K-562 leukemia, above 100 µM.

Take `CC1CC2OC(=O)C(C)C2CC2(C)C(OC3OC(CO)C(O)C(O)C3O)OCCC12` (stereo not given): the TGI in the assay on HCT-116 colon, with OVCAR-4 ovarian, in the assay with HCT-15 colon, with LOX IMVI melanoma, in the assay on KM12 colon and in the assay with MCF7 breast was above 100 µM each time. Moreover, the TGI in the assay with RXF 393 renal, in the assay on IGROV1 ovarian, in the assay with HCC-2998 colon and in the assay on K-562 leukemia was above 100 µM each time.

In the case of `NC(=O)c1ccccc1Nc1ccc2nnc(-c3ccncc3)n2n1`, the GI50 with HCT-116 colon was 3.77 µM; in the assay on OVCAR-4 ovarian, 15.1 µM; with HCT-15 colon, 5.48 µM; with LOX IMVI melanoma it was 1.87 µM; in the assay with KM12 colon, 9.34 µM; in the assay with MCF7 breast, 3.1 µM. The GI50 is 3.77 µM in the assay on RXF 393 renal, 2.23 µM with IGROV1 ovarian, 16.6 µM in the assay on HCC-2998 colon and 11.1 µM in the assay with K-562 leukemia. Further, the TGI stood at 14.3 µM in the assay with HCT-116 colon; 30.5 µM in the assay with OVCAR-4 ovarian; 22.4 µM in the assay on HCT-15 colon; 3.75 µM in the assay with LOX IMVI melanoma; 21.2 µM in the assay on KM12 colon; 16.1 µM in the assay with MCF7 breast. For the same compound, the TGI amounted to 18.1 µM with RXF 393 renal, 5.41 µM with IGROV1 ovarian, 34.5 µM in the assay on HCC-2998 colon and 60.4 µM with K-562 leukemia.
